According to US9670223B2, “Compounds with super-aspirin effects” (SOLVOTRIN THERAPEUTICS LTD., priority 2011, dated 2017):
Read-outs that look alike come from different tables or passages of the source.

Key:
[1] = system: platelet rich plasma (PRP); conditions: values marked † From Reference 7, read-out: IC50 (PRP, 95% CI); cited from earlier work
washed platelet samples [2] = assay: Collagen-induced platelet aggregation in the TCIPA studies (washed platelets); assay type: cell-based, human; conditions: Homo sapiens, Platelet; aspirin 300 μM, n=4
washed platelet samples [3] = assay: Arachidonic acid-induced platelet aggregation; assay type: cell-based, human; conditions: n=4
[4] = system: platelet rich plasma (PRP); assay: Collagen-induced platelet aggregation in platelet rich plasma (light aggregometry); assay type: cell-based; conditions: Homo sapiens, collagen (5 µg/mL), values without †, read-out: IC50 (PRP, 95% CI)
[5] = Plasma pharmacokinetics of aspirin and metabolites after single oral gavage dose; assay type: in vivo, cynomolgus monkey; conditions: cynomolgus monkey, plasma, read-out: modeled AUC of Aspirin
Method: The objectives of this study are to determine the comparative clinical efficacy as determined by TxB2 suppression with single oral gavage dose administration of Aspirin, ST0702 and ST0702 Micronised to the cynomolgus monkey. Aspirin pharmacokinetics were compared using Area Under the Curve (AUC) calculations.
The objectives of this study are to determine the comparative pharmacokinetics of ST0702 at 9.6 and 4.8 mg/Kg with single oral gavage dose administration to the cynomolgus monkey and to determine dose-response effects.
Although the half life of the Isosorbide 2 salicylate 5 nicotinate metabolite is very short in-vitro, we investigated the serum taken from Cynomologus Monkeys participating in Study 2B above. The comparative pharmacokinetics of Isosorbide 2 salicylate 5 nicotinate from Monkeys receiving a single oral gavage dose of micronized ST0702 at 9.6 and 4.8 mg/Kg were evaluated. The concentrations of the breakdown products of ISANA were quantified using LCMS methods.
Animals are acclimated to the oral gavage procedure for at least 3 days prior to the commencement of dose formulation administration. Deionized water is administered by oral gavage using a disposable catheter attached to a plastic syringe at a dose volume of 5 mL/kg. Animals are treated at approximately the same time on each dosing day. Dose formulations are administered by oral gavage using a disposable catheter attached to a plastic syringe. Following each daily dose, the gavage tube is rinsed with 6 mL of Ultra Pure water into the animal's stomach. Each animal will be dosed with a clean gavage tube on each dosing occasion. The dosing volume is 10 mL/kg. Each actual volume administered will be based on the most recent practical body weight of each animal. The dose formulations will be stirred continuously during dose administration.
Samples are mixed gently and placed on crushed wet ice until centrifugation, which are carried out as soon as practical. The samples are centrifuged for approximately 10 minutes in a refrigerated centrifuge (approximately 4° C.) at 2700 rpm. The resultant plasma are separated, transferred to uniquely labeled clear polypropylene tubes, and frozen immediately over dry ice and transferred to a freezer set to maintain −80° C. The plasma samples are transferred to the bioanalytical laboratory at the Testing Facility.
Plasma samples are analyzed for concentration of Aspirin, Salicylic Acid and Nicotinic Acid using a qualified analytical procedure. Analysis are performed by LC MS/MS under Analytical Procedure. Data collection is performed using Analyst from AB Sciex. […]

CaCo2 cells = assay: Tumour cell-induced platelet aggregation (TCIPA), static conditions, Caco-2
Method: Three human tumor cell lines, 59M ovarian adenocarcinoma, Caco-2 colon adenocarcinoma and HT1080 fibrocarcinoma cells, were obtained from the European Cell Culture Collection. Cell lines were cultured as monolayers in 75 ml culture flasks at 37° C. in a humidified atmosphere with 5% CO2. 59M cells and HT1080 were cultured in Dulbecco's […] (DMEM) supplemented with 10% fetal bovine serum (FBS) and gentamycin (0.05 mg/ml), penicillin (0.06 mg/ml), and streptomycin (0.01 mg/ml). Caco-2 cell line was cultured in Minimum Essential Medium (MEM) supplemented with 20% FBS and the same antibiotics as above. The cells were supplied with fresh medium and subcultured three times each week.
Washed platelet suspensions (2.5×10^11 platelets 1^−1) were prepared from blood an mixed with the anticoagulant sodium citrate (0.315% final concentration).
The interactions between platelets and tumor cells were measured by light aggregometry (Alonso-Escolano et al., 2004; Jurasz et al., 2001b; Radomski et al., 1991). […] TCIPA was initiated by the addition of cancer cells, and monitored by Aggro-Link software for at least 30 min. […]
To study whether or not aspirin prodrugs had any direct effect on tumour cells, nictoinate was preincubated with different cell lines and added to the platelet suspension. TCIPA was monitored for at least 30 min.

Structure (SMILES)	IC50 [1]	inhibition at 300 µM (washed platelet samples [2])	effect on arachidonic acid (100 μM)-induced aggregation (washed platelet samples [3])	IC50 [4]	AUC ([5]; oral, Phase 2B text, Aspirin 4.2 mg/Kg dose)	AUC ([5]; Phase 2A, Aspirin 4.2 mg/Kg oral)	effect on TCIPA when tumour cells were preincubated with compound (CaCo2 cells; Caco2 cells preincubated)	inhibition of TCIPA induced by Caco-2 (CaCo2 cells; static, WP, 300 and 500 μM, CaCo2 1.5×10^3/ml)
CC(=O)Oc1ccccc1C(=O)O [Aspirin]	92 µM	56 ± 7%	abolished	90 µM	923 ng·h/mL	870 ng·h/mL		
CC(=O)Oc1ccccc1C(=O)O[C@H]1CO[C@H]2[C@@H]1OC[C@H]2OC(=O)c1cccnc1 [ST0702, isosorbide-2-aspirinate-5-nicotinate]							no effect on TCIPA	consistently inhibited TCIPA
